Results published in PMC4615156 (Nucleus, 2014).

Biological target: PCNA (Homo sapiens, UniProt P12004)
Assay: Fixation of live cells labeled with the cell-permeable PIP
Type: cell-based
Conditions: PCNA expressing cells labeled live, then 3.7% formaldehyde

Chain of PCNA (P12004 whole entry): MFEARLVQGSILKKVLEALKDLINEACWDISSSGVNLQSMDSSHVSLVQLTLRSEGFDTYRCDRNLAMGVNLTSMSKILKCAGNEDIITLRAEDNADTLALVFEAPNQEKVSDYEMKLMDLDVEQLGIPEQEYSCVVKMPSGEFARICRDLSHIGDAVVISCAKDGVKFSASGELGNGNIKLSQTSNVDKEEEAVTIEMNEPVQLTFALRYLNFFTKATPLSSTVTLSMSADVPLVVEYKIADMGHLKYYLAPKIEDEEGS

- Labeling of repair sites after fixation of live labeled cells: still marks repair sites
Substance: RRRQRRKKRG-C C-SAVLQKKITDYFHPKKG-EDA-TAMRA (disulfide) [TAT(-SS-)PL-R]
